Results from US10294302B2, “Therapeutic method and medicament for HTLV-1 associated myelopathy” (priority 2012, dated 2019).
Like-named read-outs stand apart in the source and are kept apart here.

B1: Mogamulizumab (antibody, chains of the INN, looked up, V domains shown)
VH: EVQLVESGGDLVQPGRSLRLSCAASGFIFSNYGMSWVRQAPGKGLEWVATISSASTYSYYPDSVKGRFTISRDNAKNSLYLQMNSLRVEDTALYYCGRHSDGNFAFGYWGQGTLVTVSS
VL: DVLMTQSPLSLPVTPGEPASISCRSSRNIVHINGDTYLEWYLQKPGQSPQLLIYKVSNRFSGVPDRFSGSGSGTDFTLKISRVEAEDVGVYYCFQGSLLPWTFGQGTKVEIK
notes: anti-human CCR4 humanized antibody, manufactured by Kyowa Hakko Kirin

Assays:
[1] = system: HTLV-1 proviral DNA in PBMCs derived from asymptomatic HTLV-1 carriers (ACs); assay: Amount of HTLV-1 proviral DNA in PBMCs by real time-PCR (asymptomatic carriers); assay type: cell-based; conditions: 1 μg/mL; 7 days; AC N=8, FIG. 2F
Method: The amount of HTLV-1 proviral DNA was quantified in accordance with the method described in Yamano et al (Blood, 2002; 99: 88-94) and Nagai et al (J. Infectious Diseases; 2001; 183: 197-205).
At 7 days after cultivation, cells were recovered from each well, and the recovered cells were suspended in a buffer containing 50 mM Tris-HCl (pH 8.0), 20 mM EDTA, 0.1 M NaCl and 1% SDS (hereinafter, referred to as lysis buffer), and then 150 μg/mL of proteinase K (manufactured by Wako Pure Chemical Industries, Ltd.) was added thereto, followed by shaking at 55° C. overnight. Then, genomic DNAs were extracted from PBMCs of HAM patients using phenol/chloroform.
(§1) Real time-polymerase chain reaction (hereinafter, abbreviated to PCR) was performed using the extracted genomic DNA as a template, and TaqMan probes for HTLV-1 pX region and human β-actin, and a primer set of each gene.
As a standard sample of HTLV-1 pX, a genomic DNA derived from HTLV-1 infected rat TARL2 cell line where 1 copy/cell of HTLV-1 pX region was integrated was used, and as a standard sample of β-actin, a genomic DNA derived from PBMC of a normal person was used to perform PCR at the same time and to obtain a standard curve. The copy numbers of pX and β-actin of each sample were calculated using the standard curve, and the amount of HTLV-1 proviral DNA was determined by the following Equation (FIGS. 2A and 2B). […]

[2] = system: HTLV-1 proviral DNA in PBMCs derived from HAM patients; assay: Amount of HTLV-1 proviral DNA in PBMCs by real time-PCR; assay type: cell-based
Method: Then, genomic DNAs were extracted from PBMCs of HAM patients using phenol/chloroform.
as §1
As a standard sample of HTLV-1 pX, a genomic DNA derived from HTLV-1 infected rat TARL2 cell line where 1 copy/cell of HTLV-1 pX region was integrated was used, and as a standard sample of β-actin, a genomic DNA derived from PBMC of a normal person was used to perform PCR at the same time and to obtain a standard curve. The copy numbers of pX and β-actin of each sample were calculated using the standard curve, and the amount of HTLV-1 proviral DNA was determined by the following Equation (FIGS. 2A and 2B). Amount of HTLV-1 proviral DNA: copy number of HTLV-1(pX)/100 PBMC cells=(copy number of pX)/(copy number of β-actin/2)×100
Cultivation was performed in the same manner, and the absolute amount of the HTLV-1 proviral DNA per well was determined (FIGS. 2C and 2D).
In the same manner as above, 1×10^−6 μg/mL-10 μg/mL of KM2760 were added to culture PBMCs derived from HAM patients, and at 7 days after cultivation, the amounts of HTLV-1 proviral DNA were determined (FIG. 2E).
(§2) In all assays, the proliferation rate (FIGS. 3A and 3B) or the amount of HTLV-1 proviral DNA (FIGS. 3C and 3D) was represented as a percentage, when the well treated with no drug was taken as 100%.

[3] = system: IL-6 production in PBMCs of HAM patients; assay: IL-6 production in PBMC culture supernatant (Cytometric Bead Array); assay type: cell-based, human; conditions: 7 days culture; combination: 0.1 μg/mL PSL+0.01 μg/mL-10 μg/mL KM2760 versus KM2760 alone
Method: (§3) In order to examine the inhibitory effect of anti-human CCR4 antibody and adrenocorticosteroid drug on inflammatory cytokine production in PBMCs of HAM patients, PBMCs of HAM patients were cultured, and the concentrations of IFN-γ, TNF-α, IL-2, IL-6 and IL-10 in the culture supernatants were measured.
(§4) PBMCs of HAM patients were cultured for 7 days in the same manner as in Example 2, and the culture supernatants were recovered after cultivation. The concentrations of the cytokines were measured using kits for measuring cytokine concentrations (all manufactured by BD Biosciences), Human IFNγ Flex kit (cat. 560111), Human TNFα Flex kit (cat. 560122), Human IL-6 Flex kit (cat. 558276), Human IL-2 Flex kit (cat. 558270) and Human IL-10 Flex kit (cat. 558274) by BD™ Cytometric Bead Array (CBA) (FIGS. 4A, 4B, 5A, 5B, 6A, 6B, 7A, 7B, 8A and 8B).
(§5) Inhibitory effects of anti-human CCR4 chimeric antibody KM2760 and anti-human CCR4 humanized antibody Poteligeo® (manufactured by Kyowa Hakko Kirin co., Ltd.) on spontaneous cell proliferation, the amount of HTLV-1 provirus DNA, and the cytokine production in PBMCs of HAM patients (N=11) were examined in the same manner as in Examples 1, 2, and 4.

[4] = system: PBMCs derived from HAM patients; assay: Spontaneous cell proliferation of PBMCs by 3H-thymidine up-take; assay type: cell-based, human; conditions: for cell proliferation compared to non-drug treatment: Example 3, FIGS. 3A and 3B
Excerpt: PBMCs of HAM patients and asymptomatic HTLV-1 carriers (AC) were isolated from peripheral bloods that were collected from 9 HAM patients and 8 asymptomatic HTLV-1 carriers by Ficoll density gradient centrifugation, and frozen and stored in liquid nitrogen until assay. The isolated PBMCs were suspended in an RPMI1640 medium containing 10% fetal bovine serum (hereinafter, abbreviated to FBS), 1% penicillin and 1% streptomycin (manufactured by Wako Pure Chemical Industries, Ltd.) (hereinafter, abbreviated to RPMI medium) without proliferation stimulation, and seeded at a density of 1×10^5 cells/100 μL/well in a 96-well round bottom plate. A well added with 1 μg/mL of prednisolone (PSL) was prepared as a positive control, and wells added with 0-10 μg/mL of anti-human CCR4 chimeric antibody KM2760 were prepared as a subject antibody. Cultivation was performed under the conditions of 37° C. and 5% CO2 for 6 days.
After cultivation, 1 μCi ^3H-thymidine was added to each well, and further cultured for 16 hours. After cultivation, the cells were recovered, and specific radioactivity was measured using a liquid scintillation counter (Micro Beta) to determine cell proliferation rate (%) (FIGS. 1A, 1B). The up-take of ^3H-thymidine in the non-drug-treated well was taken as 100%, and the ratio was determined.
In the same manner as in Example 1, PBMCs isolated from the peripheral blood of HAM patient were seeded in a 96-well bottom plate. A well added with 0.1 or 1 μg/mL of prednisolone and wells added with 0.1 μg/mL prednisolone+0.01-10 μg/mL of anti-human CCR4 chimeric antibody KM2760 were prepared to perform cultivation.
For cell proliferation assay by ^3H-thymidine up-take, ^3H-thymidine was added at 6 days after cultivation in the same manner as in Example 1, and further cultured for 16 hours. Further, the amount of HTLV-1 proviral DNA was determined at 7 days after cultivation in the same manner as in Example 2.
as §2, §5

[5] = system: IFN-γ production in PBMCs of HAM patients; assay: IFN-γ production in PBMC culture supernatant (Cytometric Bead Array); assay type: cell-based, human; conditions: 7 days culture; combination: 0.1 μg/mL PSL+0.01 μg/mL-10 μg/mL KM2760 versus KM2760 alone
Method: as §3, §4, §5

[6] = system: PBMCs derived from HAM patients; assay: Actual number of cells after cultivation of PBMCs; assay type: cell-based, human; conditions: 1 μg/mL; 7 days after cultivation; FIG. 1C
Method: In the same manner, PBMCs derived from HAM patients were cultured by addition of 1×10^−6 μg/mL-10 μg/mL of KM2760, and at 7 days after cultivation, the actual number of cells was counted (FIG. 1C).

[7] = cited from earlier work
[8] = system: TNF-α production in PBMCs of HAM patients; assay: TNF-α production in PBMC culture supernatant (Cytometric Bead Array); assay type: cell-based, human; conditions: 7 days culture; combination: 0.1 μg/mL PSL+0.01 μg/mL-10 μg/mL KM2760 versus KM2760 alone
Method: as §3, §4, §5

[9] = system: IL-2 production in PBMCs of HAM patients; assay: IL-2 production in PBMC culture supernatant (Cytometric Bead Array); assay type: cell-based, human; conditions: 7 days culture; combination: 0.1 μg/mL PSL+0.01 μg/mL-10 μg/mL KM2760 versus KM2760 alone
Method: as §3, §4, §5

[10] = system: IL-10 production in PBMCs of HAM patients; assay: IL-10 production in PBMC culture supernatant (Cytometric Bead Array); assay type: cell-based, human; conditions: 7 days culture; combination: 0.1 μg/mL PSL+0.01 μg/mL-10 μg/mL KM2760 versus KM2760 alone
Method: as §3, §4, §5

[11] = PSL 1 μg/mL, antibody up to 10 μg/mL, 7 days, compared to non-drug treatment

Molecule	effect on the amount of proviral DNA (in words) [1]	effect on the amount of proviral DNA (in words) ([2]; 1 μg/mL, 7 days, FIG. 2E)	absolute amount of HTLV-1 proviral DNA of each well compared to non-drug treatment ([2]; 1 μg/mL, Example 3, FIGS. 3E and 3F)	absolute amount of HTLV-1 proviral DNA per well, fraction of non-drug treatment ([2]; 1 μg/mL, FIGS. 2C and 2D)	effect on the amount of HTLV-1 proviral DNA (in words) ([2]; 0.1 or 1 μg/mL, Example 3)	effect on the amount of HTLV-1 proviral DNA (in words) [2, 11]	inhibition of IL-6 production (in words) [3]	cell proliferation compared to non-drug treatment ([4]; 0.1 μg/mL)	cell proliferation compared to non-drug treatment ([4]; 1 μg/mL) [%]	inhibition at 1 µg/mL ([4]; Homo sapiens, PBMC, 1 μg/mL, 6 days + 16 h 3H-thymidine, 9 HAM patients, FIG. 1B, read-out: cell proliferation inhibition compared to non-drug treatment) [%]	inhibition of IFN-γ production (in words) [5]	number of cells compared to non-drug treatment [6]	blood concentration ([7]; oral administration of 50 mg to a clinical patient)	blood concentration ([7]; oral administration of a low dose of 5 mg to a clinical patient)	inhibition of TNF-α production (in words) [8]	inhibition of IL-2 production (in words) [9]	inhibition of IL-10 production (in words) [10]	inhibition of spontaneous cell proliferation (in words) ([4]; antibody 0-10 μg/mL, 3H-thymidine up-take)
C[C@]12C=CC(=O)C=C1CC[C@@H]1[C@@H]2[C@@H](O)C[C@@]2(C)[C@H]1CC[C@]2(O)C(=O)CO [PSL, prednisolone]	almost didn't reduce the amount of proviral DNA	almost didn't reduce the amount of proviral DNA	approximately 50%	⅓	almost didn't reduce the amount of HTLV-1 proviral DNA	did not show the effect of reducing the amount of HTLV-1 proviral DNA	inhibited the production of all cytokines	approximately 70%	~50	~50	inhibited the production of all cytokines	approximately 50%	approximately 1 μg/mL	approximately 0.1 μg/mL	inhibited the production of all cytokines	inhibited the production of all cytokines	–	–
B1	–	–	–	–	–	inhibited	inhibited	–	–	–	inhibited	–	–	–	inhibited	inhibited	inhibited	inhibited
